# Measured values as given in US20250382305A1 (PTC THERAPEUTICS, INC., priority 2022, published 2025).
# pIC50: −log10 of the molar value.
# Tests used:
# [1] = tested on: Total ATXN3 (tATXN3) protein; assay: Endogenous Total ATXN3 (tATXN3) Protein Assay (MSD immunoassay of cell lysates); assay type: cell-based; settings: average IC50, total ATXN3 protein in cell lysate after 48 h with compound (Table 1)
# Outline: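 By electrochemiluminescent MSD sandwich immunoassay (mouse monoclonal capture, rabbit monoclonal and SULFO-TAG anti-rabbit detection), endogenous ATXN3 was quantified in lysates of cells treated 48 h at 37° C at 10,000 cells/well. Treatment used a 7-point 3.16-fold duplicate dilution series, with average IC50 grouped into star categories.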
# [2] = tested on: ATXN3 pre-mRNA; assay: RT-qPCR Assay to Quantify Exon 4 Skipping in ATXN3 pre-mRNA in Cells; assay type: cell-based; settings: percent exon 4 skipping in ATXN3 pre-mRNA, RT-qPCR of cell lysates; average IC50
# Outline: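 IC50 derives from a dose-response fit of percent exon 4 skipping, quantified by RT-qPCR on crude lysates. Compounds tested as 7-point 3.16-fold dilutions in duplicate; cells (10,000/well) were exposed for 24 h at 37 °C before lysis.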
Compound,pIC50 [1],pIC50 [2]
"CC#CCNc1cc(Cl)nc2c(Br)c([C@@H]3CC(C)=C(C)C[C@H]3N)sc12 [Compound 438, 2-((1R,6R)-6-amino-3,4-dimethylcyclohex-3-en-1-yl)-3-bromo-N-(but-2-yn-1-yl)-5-chlorothieno[3,2-b]pyridin-7-amine]",6.00 to 6.52,6.52 to 7.52
"CC#Cc1c(C2[C@@H](N)CCCC2(F)F)sc2c(NCc3cccs3)cc(Cl)nc12.CC#Cc1c(C2[C@H](N)CCCC2(F)F)sc2c(NCc3cccs3)cc(Cl)nc12 (mixture of isomers) [Compound 208, 2-((6R)-6-amino-2,2-difluorocyclohexyl)-5-chloro-3-(prop-1-yn-1-yl)-N-(thiophen-2-ylmethyl)thieno[3,2-b]pyridin-7-amine and 2-((6S)-6-amino-2,2-difluorocyclohexyl)-5-chloro-3-(prop-1-yn-1-yl)-N-(thiophen-2-ylmethyl)thieno[3,2-b]pyridin-7-amine]",≥ 7.52,≥ 7.52
"2-((1R,6R)-6-aminocyclohex-3-en-1-yl-2,2,3,4,5,5-d6)-5-chloro-N-(furan-2-ylmethyl)-3-methylthieno[3,2-b]pyridin-7-amine and 2-((1S,6S)-6-aminocyclohex-3-en-1-yl-2,2,3,4,5,5-d6)-5-chloro-N-(furan-2-ylmethyl)-3-methylthieno[3,2-b]pyridin-7-amine [Compound 171]",≥ 7.52,≥ 7.52
"N[C@@H]1CC=CC[C@H]1c1sc2c(NCc3cccs3)cc(Cl)nc2c1I.N[C@H]1CC=CC[C@@H]1c1sc2c(NCc3cccs3)cc(Cl)nc2c1I (mixture of isomers) [Compound 365, 2-((1R,6R)-6-aminocyclohex-3-en-1-yl)-5-chloro-3-iodo-N-(thiophen-2-ylmethyl)thieno[3,2-b]pyridin-7-amine and 2-((1S,6S)-6-aminocyclohex-3-en-1-yl)-5-chloro-3-iodo-N-(thiophen-2-ylmethyl)thieno[3,2-b]pyridin-7-amine]",6.52 to 7.52,6.52 to 7.52
"2-(3-aminotetrahydro-2H-pyran-2-yl)-N-benzyl-3-bromo-5-chlorothieno[3,2-b]pyridin-7-amine [Compound 27]",6.52 to 7.52,≥ 7.52
"N[C@H]1CCCO[C@@H]1c1sc2c(NCc3ccncc3)cc(Cl)nc2c1Br [Compound 251, 2-((2S,3S)-3-aminotetrahydro-2H-pyran-2-yl)-3-bromo-5-chloro-N-(pyridin-4-ylmethyl)thieno[3,2-b]pyridin-7-amine]",6.52 to 7.52,≥ 7.52
"N[C@@H]1[C@@H](O)C=CC[C@H]1c1sc2c(NCc3cccs3)cc(Cl)nc2c1Cl.N[C@H]1[C@H](O)C=CC[C@@H]1c1sc2c(NCc3cccs3)cc(Cl)nc2c1Cl (mixture of isomers) [Compound 127, (1R,5S,6R)-6-amino-5-(3,5-dichloro-7-((thiophen-2-ylmethyl)amino)thieno[3,2-b]pyridin-2-yl)cyclohex-2-en-1-ol and (1S,5R,6S)-6-amino-5-(3,5-dichloro-7-((thiophen-2-ylmethyl)amino)thieno[3,2-b]pyridin-2-yl)cyclohex-2-en-1-ol]",6.52 to 7.52,6.52 to 7.52
"N[C@H]1CCCO[C@@H]1c1sc2c(NCc3ccccc3)nc(Cl)nc2c1Br [Compound 69, 6-((2S,3S)-3-aminotetrahydro-2H-pyran-2-yl)-N-benzyl-7-bromo-2-chlorothieno[3,2-d]pyrimidin-4-amine]",6.52 to 7.52,≥ 7.52
"CC1=C(C)C[C@@H](c2sc3c(NCc4ccco4)cc(Cl)nc3c2Cl)[C@H](N)C1 [Compound 444, 2-((1R,6R)-6-amino-3,4-dimethylcyclohex-3-en-1-yl)-3,5-dichloro-N-(furan-2-ylmethyl)thieno[3,2-b]pyridin-7-amine]",< 6.00,6.00 to 6.52
"N[C@H]1CCCCCC[C@@H]1c1sc2c(NCc3cccs3)cc(Cl)nc2c1Cl [Compound 96, 2-((1S,2S)-2-aminocyclooctyl)-3,5-dichloro-N-(thiophen-2-ylmethyl)thieno[3,2-b]pyridin-7-amine]",6.52 to 7.52,6.52 to 7.52
"6-((1R,6R)-6-aminocyclohex-3-en-1-yl-2,2,3,4,5,5-d6)-7-bromo-2-chloro-N-(furan-2-ylmethyl)thieno[3,2-d]pyrimidin-4-amine and 6-((1S,6S)-6-aminocyclohex-3-en-1-yl-2,2,3,4,5,5-d6)-7-bromo-2-chloro-N-(furan-2-ylmethyl)thieno[3,2-d]pyrimidin-4-amine [Compound 200]",≥ 7.52,≥ 7.52
"N[C@H]1CCCO[C@@H]1c1sc2c(NCc3cccs3)cc(Cl)nc2c1C#CCO (mixture of isomers) [Compound 252, 3-(2-((2R,3R)-3-aminotetrahydro-2H-pyran-2-yl)-5-chloro-7-((thiophen-2-ylmethyl)amino)thieno[3,2-b]pyridin-3-yl)prop-2-yn-1-ol and 3-(2-((2S,3S)-3-aminotetrahydro-2H-pyran-2-yl)-5-chloro-7-((thiophen-2-ylmethyl)amino)thieno[3,2-b]pyridin-3-yl)prop-2-yn-1-ol]",6.52 to 7.52,≥ 7.52
"2-((3R,4S)-3-aminotetrahydro-2H-pyran-4-yl)-5-chloro-N-(thiophen-2-ylmethyl)-3-vinylthieno[3,2-b]pyridin-7-amine and 2-((3S,4R)-3-aminotetrahydro-2H-pyran-4-yl)-5-chloro-N-(thiophen-2-ylmethyl)-3-vinylthieno[3,2-b]pyridin-7-amine [Compound 350]",6.52 to 7.52,6.52 to 7.52
"CCc1c([C@@H]2CCC[C@H]2N)sc2c(NCc3cccs3)cc(Cl)nc12 [Compound 12, 2-((1R,2R)-2-aminocyclopentyl)-5-chloro-3-ethyl-N-(thiophen-2-ylmethyl)thieno[3,2-b]pyridin-7-amine]",< 6.00,< 6.00

# Now from value to compound:
pIC50 [1],pIC50 [2],Compound
6.52 to 7.52,6.52 to 7.52,"Cc1c([C@H]2CC=CC[C@@H]2N)sc2c(NCc3ccccc3)nc(Cl)nc12 [Compound 326, 6-((1S,6S)-6-aminocyclohex-3-en-1-yl)-N-benzyl-2-chloro-7-methylthieno[3,2-d]pyrimidin-4-amine]"
< 6.00,< 6.00,"N[C@H]1CCCCCC[C@@H]1c1cc2nc(Cl)cc(NCc3cccs3)c2s1 [Compound 103, 2-((1S,2S)-2-aminocyclooctyl)-5-chloro-N-(thiophen-2-ylmethyl)thieno[3,2-b]pyridin-7-amine]"
< 6.00,< 6.00,"N[C@@H]1CCCO[C@H]1c1sc2c(NCc3ccccc3)nc(Cl)nc2c1Br [Compound 70, 6-((2R,3R)-3-aminotetrahydro-2H-pyran-2-yl)-N-benzyl-7-bromo-2-chlorothieno[3,2-d]pyrimidin-4-amine]"
6.52 to 7.52,6.52 to 7.52,"Cc1c([C@H]2CC=CC[C@@H]2N)sc2c(NCc3ccco3)cc(C#N)nc12 [Compound 289, 2-((1S,6S)-6-aminocyclohex-3-en-1-yl)-7-((furan-2-ylmethyl)amino)-3-methylthieno[3,2-b]pyridine-5-carbonitrile]"
< 6.00,< 6.00,"N[C@@H]1CCCCC[C@H]1c1sc2c(NCc3cccs3)cc(Cl)nc2c1-c1ccccc1 [Compound 142, 2-((1R,2R)-2-aminocycloheptyl)-5-chloro-3-phenyl-N-(thiophen-2-ylmethyl)thieno[3,2-b]pyridin-7-amine]"
6.52 to 7.52,6.52 to 7.52,"Cc1c([C@H]2CC=C(C(=O)N3CCOCC3)C[C@@H]2N)sc2c(NCc3cccs3)cc(Cl)nc12 [Compound 313, ((4S,5S)-5-amino-4-(5-chloro-3-methyl-7-((thiophen-2-ylmethyl)amino)thieno[3,2-b]pyridin-2-yl)cyclohex-1-en-1-yl)(morpholino)methanone]"
6.52 to 7.52,6.52 to 7.52,"N[C@H]1CCCO[C@H]1c1sc2c(NCc3cccs3)cc(Cl)nc2c1Cl [Compound 19, 2-((2R,3S)-3-aminotetrahydro-2H-pyran-2-yl)-3,5-dichloro-N-(thiophen-2-ylmethyl)thieno[3,2-b]pyridin-7-amine]"
6.00 to 6.52,6.52 to 7.52,"CC#CCNc1cc(Cl)nc2c(Br)c([C@H]3CCOC[C@@H]3N)sc12 [Compound 398, 2-((3R,4S)-3-aminotetrahydro-2H-pyran-4-yl)-3-bromo-N-(but-2-yn-1-yl)-5-chlorothieno[3,2-b]pyridin-7-amine]"
6.00 to 6.52,6.00 to 6.52,"C[C@@H]1C=C[C@H](C)[C@H](N)[C@H]1c1sc2c(NCc3ccco3)cc(Cl)nc2c1Cl [Compound 450, 2-((1S,2R,5S,6S)-6-amino-2,5-dimethylcyclohex-3-en-1-yl)-3,5-dichloro-N-(furan-2-ylmethyl)thieno[3,2-b]pyridin-7-amine]"
6.52 to 7.52,6.52 to 7.52,"[2H]C1=C([2H])C([2H])([2H])[C@H](c2sc3c(NCc4cccs4)cc(Cl)nc3c2C)[C@@H](N)C1([2H])[2H] [Compound 261, 2-((1S,6S)-6-aminocyclohex-3-en-1-yl-2,2,3,4,5,5-d6)-5-chloro-3-methyl-N-(thiophen-2-ylmethyl)thieno[3,2-b]pyridin-7-amine]"
< 6.00,6.52 to 7.52,"Cc1c([C@@H]2CCC[C@H]2N)sc2c(NCc3ccco3)cc(Cl)nc12 [Compound 145, 2-((1R,2R)-2-aminocyclopentyl)-5-chloro-N-(furan-2-ylmethyl)-3-methylthieno[3,2-b]pyridin-7-amine]"
6.52 to 7.52,6.52 to 7.52,"N[C@H]1CCCO[C@@H]1c1c(Cl)c2nc(Cl)nc(NCc3cccs3)c2n1C(F)F [Compound 305, 6-((2S,3S)-3-aminotetrahydro-2H-pyran-2-yl)-2,7-dichloro-5-(difluoromethyl)-N-(thiophen-2-ylmethyl)-5H-pyrrolo[3,2-d]pyrimidin-4-amine]"
